The results in this text go back to patent publication US20250195513A1, “DEGRADATION OF IRAK4 BY CONJUGATION OF IRAK4 INHIBITORS WITH E3 LIGASE LIGAND AND METHODS OF USE” (BeiGene, Ltd., priority 2022, published 2025).

Holding throughout (format): cell-based
Test [1] concerns the target T1, IRAK4 (Homo sapiens, UniProt Q9NWZ3).
T1 construct: endogenous in cells; host or cells: Karpas299
T1 sequence (Q9NWZ3 1-460): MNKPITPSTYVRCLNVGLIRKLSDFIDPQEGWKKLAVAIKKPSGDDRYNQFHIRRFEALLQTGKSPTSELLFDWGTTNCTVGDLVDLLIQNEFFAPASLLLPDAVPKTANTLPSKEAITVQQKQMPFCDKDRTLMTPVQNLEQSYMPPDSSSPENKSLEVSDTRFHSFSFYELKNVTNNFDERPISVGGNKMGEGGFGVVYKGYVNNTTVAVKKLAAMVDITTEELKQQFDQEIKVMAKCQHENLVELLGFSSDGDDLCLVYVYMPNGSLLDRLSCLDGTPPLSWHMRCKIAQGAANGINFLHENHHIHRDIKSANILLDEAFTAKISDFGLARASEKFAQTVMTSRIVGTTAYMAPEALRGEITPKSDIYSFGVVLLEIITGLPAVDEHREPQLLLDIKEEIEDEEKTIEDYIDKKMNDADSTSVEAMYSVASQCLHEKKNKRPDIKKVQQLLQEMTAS
As to the kind of experiment: IRAK4 Degradation Assay with Human Serum (Karpas299, HTRF/TR-FRET). The conditions noted are these: Karpas-299 in human serum, 24 hrs treatment; for DC50: read-out: IRAK4 degradtion with human serum assay DC50; for Dmax: read-out: IRAK4 degradtion with human serum assay Dmax (%). An outline of the steps: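 Remaining IRAK4 measured by TR-FRET immunoassay on lysates of Karpas299 cells exposed 24 h to compound dilution series in human serum AB. DC50 derived from a Hill-slope fit of % degradation versus concentration.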

Test [2] has as its system TNF-α production in THP-1 cells. As to the kind of experiment: TNF-α Production Assay in THP-1 Cells (LPS stimulated). To be noted: Homo sapiens, THP-1, 24 h; for Emax: maximum inhibition, read-out: TNF-α (THP-1) 24 h IMax. The method, then: THP-1 cells maintained in RPMI 1640 medium (Thermo Scientific) supplemented with 10% FBS (Thermo Scientific), 100 units/mL penicillin and 0.1 mg/mL streptomycin (Thermo Scientific) were seeded into 96-well plates at the density of 0.2 million cells per well and then treated with compounds for 24 h. Lipopolysaccharide was subsequently added at the final concentration of 1 μg/mL for 24 h. Culture supernatant was collected for measurement of TNF-α concentration by a TR-FRET-based method (Degorce, François, et al. Current chemical genomics. 2009, 3: 22) as described by the manufacturer manual (Cisbio). FRET signals were measured using a PHERAstar FSX reader (BMG Labtech).

Test [3] has as its target T1, IRAK4. Briefly: IRAK4 Degradation Assay (Karpas299, HTRF/TR-FRET). To be noted: Karpas-299 cells; for Dmax: maximum percentage of degradation. An outline of the steps: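 Compound potency as DC50 (IC50) came from four-parameter fits of percent IRAK4 degradation. IRAK4 was measured by HTRF (665/620 nm) in lysates of Karpas299 cells seeded at 0.2 million per well. Cells had been treated with compound dilutions for 5 or 24 h.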

Where [4] appears, read: 5 h treatment, read-out: IRAK4 in Karpas-299 (5 h) Dmax (%).
Where [5] appears, read: 5 h treatment, read-out: IRAK4 in Karpas-299 (5 h) DC50.
The mark [6] stands for this setting: 24 h treatment, read-out: IRAK4 in Karpas-299 (24 h) Dmax (%).
The mark [7] stands for this setting: 24 h treatment, read-out: IRAK4 in Karpas-299 (24 h) DC50.

On to `CC(C)(O)c1cc2nn([C@H]3CC[C@H](N4CCN(C(=O)C5CN(c6cc(F)c(N7CCC(=O)NC7=O)c(F)c6)C5)CC4)CC3)cc2cc1NC(=O)c1ccc2cc(C#N)cnn12` [Example 105, 3-cyano-N-(2-((1r,4r)-4-(4-(1-(4-(2,4-dioxotetrahydropyrimidin-1(2H)-yl)-3,5-difluorophenyl)azetidine-3-carbonyl)piperazin-1-yl)cyclohexyl)-6-(2-hydroxypropan-2-yl)-2H-indazol-5-yl)pyrrolo[1,2-b]pyridazine-7-carboxamide], for which the values for the DC50 at IRAK4 [1], at IRAK4 [3] (setting [5]) and at IRAK4 [3] (setting [7]) were 21 nM, 3.1 nM and 0.7 nM, respectively. Besides, the Dmax at IRAK4 [1] stood at 98%; at IRAK4 [3] (setting [4]), 97%; at IRAK4 [3] (setting [6]), 98%. This molecule returned an IC50 in test [2] of 36 nM. Moreover, the Emax in test [2] stood at 78%.

Consider `CC(C)(O)c1cc2nn([C@H]3CC[C@H](N4CCN(C(=O)[C@@H]5CCN(c6cc(F)c([C@H]7CCC(=O)NC7=O)c(F)c6)C5)CC4)CC3)cc2cc1NC(=O)c1ccc2cc(C#N)cnn12` [Example 181, 3-cyano-N-(2-((1R,4r)-4-(4-((R)-1-(4-((R)-2,6-dioxopiperidin-3-yl)-3,5-difluorophenyl)pyrrolidine-3-carbonyl)piperazin-1-yl)cyclohexyl)-6-(2-hydroxypropan-2-yl)-2H-indazol-5-yl)pyrrolo[1,2-b]pyridazine-7-carboxamide], for which the DC50 on IRAK4 [1] worked out at 11 nM; at IRAK4 [3] (setting [5]), 2 nM; on IRAK4 [3] (setting [7]) it was 0.4 nM. Moreover, the Dmax on IRAK4 [1] is 101%; on IRAK4 [3] (setting [4]), 97%; at IRAK4 [3] (setting [6]) it was 97%. Besides, the IC50 in test [2] worked out at 30 nM. For the same molecule, the Emax in test [2] amounted to 69%.

For `COC[C@H]1CN([C@H]2CC[C@H](n3cc4cc(NC(=O)c5ccc6cc(C#N)cnn56)c(C(C)(C)O)cc4n3)CC2)CCN1C(=O)C1CN(c2cc(F)c([C@H]3CCC(=O)NC3=O)c(F)c2)C1` [Example 185, 3-cyano-N-(2-((1R,4r)-4-((R)-4-(1-(4-((R)-2,6-dioxopiperidin-3-yl)-3,5-difluorophenyl)azetidine-3-carbonyl)-3-(methoxymethyl)piperazin-1-yl)cyclohexyl)-6-(2-hydroxypropan-2-yl)-2H-indazol-5-yl)pyrrolo[1,2-b]pyridazine-7-carboxamide], on IRAK4 [1], the DC50 is 14 nM and the Dmax worked out at 100%. Besides, in test [2], the IC50 turned out to be 12 nM and the Emax came out at 91%. At IRAK4 [3] (setting [6]), the Dmax worked out at 96%. Also, the DC50 on IRAK4 [3] (setting [7]) was 0.7 nM.

For `COC[C@@H]1CN([C@H]2CC[C@H](n3cc4cc(NC(=O)c5ccc6cc(C#N)cnn56)c(C(C)(C)O)cc4n3)CC2)CCN1C(=O)C1CN(c2cc(F)c([C@H]3CCC(=O)NC3=O)c(F)c2)C1` [Example 186, 3-cyano-N-(2-((1S,4r)-4-((S)-4-(1-(4-((R)-2,6-dioxopiperidin-3-yl)-3,5-difluorophenyl)azetidine-3-carbonyl)-3-(methoxymethyl)piperazin-1-yl)cyclohexyl)-6-(2-hydroxypropan-2-yl)-2H-indazol-5-yl)pyrrolo[1,2-b]pyridazine-7-carboxamide], on IRAK4 [1], the DC50 was found to be 9.2 nM and the Dmax was 101%. In test [2], the IC50 stood at 29 nM and the Emax turned out to be 89%. For the same molecule, the Dmax on IRAK4 [3] (setting [6]) stood at 99%. Moreover, the DC50 at IRAK4 [3] (setting [7]) is 0.9 nM.

In the case of `CC(C)(O)c1cc2nn([C@H]3CC[C@H](N4CCN(C(=O)CNc5cc(F)c([C@H]6CCC(=O)NC6=O)c(F)c5)CC4)CC3)cc2cc1NC(=O)c1ccc2cc(C#N)cnn12` [Example 193, 3-cyano-N-(2-((1R,4r)-4-(4-((4-((R)-2,6-dioxopiperidin-3-yl)-3,5-difluorophenyl)glycyl)piperazin-1-yl)cyclohexyl)-6-(2-hydroxypropan-2-yl)-2H-indazol-5-yl)pyrrolo[1,2-b]pyridazine-7-carboxamide], at IRAK4 [1], the DC50 stood at 5.8 nM and the Dmax is 102%. Moreover, in test [2], inhibition was half-maximal at 20 nM (IC50) and the Emax was 58%. The Dmax at IRAK4 [3] (setting [6]) worked out at 97%. On IRAK4 [3] (setting [7]), the DC50 came out at 0.4 nM.

On to `CC(C)(O)c1cc2nn([C@H]3CC[C@H](N4CCN(CCNc5cc(F)c([C@H]6CCC(=O)NC6=O)c(F)c5)CC4)CC3)cc2cc1NC(=O)c1ccc2cc(C#N)cnn12` [Example 194, 3-cyano-N-(2-((1R,4r)-4-(4-(2-((4-((R)-2,6-dioxopiperidin-3-yl)-3,5-difluorophenyl)amino)ethyl)piperazin-1-yl)cyclohexyl)-6-(2-hydroxypropan-2-yl)-2H-indazol-5-yl)pyrrolo[1,2-b]pyridazine-7-carboxamide], for which the DC50 on IRAK4 [1] came out at 6.2 nM; on IRAK4 [3] (setting [5]) it was 1.6 nM; at IRAK4 [3] (setting [7]), 1.1 nM. Also, the Dmax on IRAK4 [1] was determined as 96%; on IRAK4 [3] (setting [4]), 93%; on IRAK4 [3] (setting [6]), 98%. Also, the IC50 in test [2] turned out to be 30 nM. For the same molecule, in test [2], the Emax is 53%.

Take `CC(C)(O)c1cc2nn([C@H]3CC[C@H](N4CCN(C5CCN(c6ccc(C7CCC(=O)NC7=O)cc6)CC5)CC4)CC3)cc2cc1NC(=O)c1ccc2cc(C#N)cnn12` (some centres unmarked) [Example 195, 3-cyano-N-(2-((1r,4r)-4-(4-(1-(4-(2,6-dioxopiperidin-3-yl)phenyl)piperidin-4-yl)piperazin-1-yl)cyclohexyl)-6-(2-hydroxypropan-2-yl)-2H-indazol-5-yl)pyrrolo[1,2-b]pyridazine-7-carboxamide]: the DC50 was 10 nM on IRAK4 [1], 13 nM on IRAK4 [3] (setting [5]) and 2.8 nM at IRAK4 [3] (setting [7]). The results for the Dmax on IRAK4 [1], on IRAK4 [3] (setting [4]) and on IRAK4 [3] (setting [6]) were 98%, 97% and 98%, respectively. The same molecule came in with an IC50 in test [2] of 118 nM. Besides, the Emax in test [2] was determined as 72%.

Consider `CC(C)(O)c1cc2nn([C@H]3C[C@H](N4CCN(C(=O)C5CN(c6cc(F)c([C@H]7CCC(=O)NC7=O)c(F)c6)C5)CC4)C3)cc2cc1NC(=O)c1ccc2cc(C#N)cnn12` [Example 201, 3-cyano-N-(2-((1R,3r)-3-(4-(1-(4-((R)-2,6-dioxopiperidin-3-yl)-3,5-difluorophenyl)azetidine-3-carbonyl)piperazin-1-yl)cyclobutyl)-6-(2-hydroxypropan-2-yl)-2H-indazol-5-yl)pyrrolo[1,2-b]pyridazine-7-carboxamide], for which, at IRAK4 [1], the DC50 was 11 nM and the Dmax came out at 99%. Also, in test [2], the IC50 is 6.7 nM and the Emax came out at 80%. At IRAK4 [3] (setting [6]), the Dmax is 96%. In addition, the half-maximal degradation concentration (DC50) on IRAK4 [3] (setting [7]) turned out to be 0.8 nM.

As to `COc1cc(N2CC(C(=O)N3CCN([C@H]4CC[C@H](n5cc6cc(NC(=O)c7ccc8cc(C#N)cnn78)c(C(C)(C)O)cc6n5)CC4)CC3)C2)ccc1[C@H]1CCC(=O)NC1=O` [Example 259], on IRAK4 [1], the DC50 worked out at 6.3 nM and the Dmax came out at 101%. Besides, in test [2], the half-inhibitory concentration (IC50) worked out at 19 nM and the Emax turned out to be 90%. Besides, the Dmax at IRAK4 [3] (setting [6]) was 98%. For the same molecule, the DC50 on IRAK4 [3] (setting [7]) came out at 0.8 nM.

With `COc1cc(N2CC(C(=O)N3CCN([C@H]4CC[C@H](n5cc6cc(NC(=O)c7ccc8cc(C#N)cnn78)c(C(C)(C)O)cc6n5)CC4)CC3)C2)ccc1N1CCC(=O)NC1=O` [Example 269], the DC50 on IRAK4 [1] stood at 11 nM; on IRAK4 [3] (setting [7]) it was 1.8 nM. The Dmax on IRAK4 [1] was determined as 94%; at IRAK4 [3] (setting [6]), 97%. For the same molecule, in test [2], the IC50 turned out to be 24 nM. For the same molecule, in test [2], the Emax was found to be 89%.

For orientation: DC50 means the midpoint of the concentration-degradation curve. The Dmax is the greatest extent of degradation seen. The IC50 is the concentration that inhibits the measured activity by half.
